Source: patent US20240382488A1, “NEK7 INHIBITORS” (Halia Therapeutics, Inc., priority 2021, published 2024)

The molecules below were run against T1, full-length recombinant human Nek7 (Homo sapiens, UniProt Q8TDX7) (assay: NEK7 Enzymatic Assay). Settings: radiometric [32P]-ATP kinase assay, casein substrate 20 μM, Nek7 70 nM, 2 hours room temperature.
T1 construct: full-length recombinant human Nek7; GST (N); purchased SignalChem N09-10G; host or cells: Sf9 insect cells (baculovirus)
Assay type: biochemical
Experimental: Casein substrate (from bovine milk, hydrolyzed and partially dephosphorylated mixture of α, β and κ caseins, obtained from Sigma Aldrich, catalogue #C4765, diluted in distilled water to a final concentration of 1 mg/mL, assay concentration 20 μM) and full-length recombinant human Nek7 (expressed by baculovirus in Sf9 insect cells using a N-terminal GST tag, obtained from SignalChem, catalogue #N09-10G, 0.1 μg/μL, assay concentration 70 nM) were mixed in assay buffer (20 mM Hepes pH 7.5, 10 mM MgCl2, 1 mM EGTA, 0.02% Brij35, 0.02 mg/ml BSA, 0.1 mM […], 2 mM DTT, 1% DMSO). Compounds of interest (in DMSO, serial 3-fold dilution from 10 μM to 0.5 nM) or control (1% DMSO) were dispensed into the kinase reaction mixture by Acoustic technology (Echo550; nanoliter range). After incubation at room temperature for 20 minutes, the kinase reaction was initiated by addition of [^32P]-ATP (Specific activity 10 μCi/μl) and the mixture was incubated at room temperature for 2 hours. The reaction was then stopped by spotting the reaction mixture on strips of phosphocellulose P81 paper. Following washing, the radioactivity of the P81 paper was measured and kinase activity data were expressed as the percent remaining kinase activity in test samples compared to vehicle (dimethyl sulfoxide) reactions. IC50 values and curve fits were obtained using Prism (GraphPad Software).
Representative compounds were tested for inhibitory activity against NEK7 according to the procedure described above.

T1 sequence (Q8TDX7 whole entry): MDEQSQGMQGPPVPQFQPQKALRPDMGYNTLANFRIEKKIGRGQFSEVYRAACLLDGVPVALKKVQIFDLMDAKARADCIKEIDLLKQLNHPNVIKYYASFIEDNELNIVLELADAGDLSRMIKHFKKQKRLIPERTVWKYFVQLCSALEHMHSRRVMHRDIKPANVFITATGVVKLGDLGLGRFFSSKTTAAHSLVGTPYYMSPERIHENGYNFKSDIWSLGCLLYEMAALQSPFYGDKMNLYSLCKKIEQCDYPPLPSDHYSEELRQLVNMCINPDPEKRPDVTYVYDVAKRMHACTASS

Compound	IC50 [nM]
CN1CCN(Cc2ccc(CC(=O)N3CCc4c3ccc(-c3cn(C5CC5)c5ncnc(N)c35)c4F)cc2C(F)(F)F)CC1 [Compound I-25, 1-(5-(4-amino-7-cyclo-propyl-7H-pyrrolo[2,3-d]pyrimidin-5-yl)-4-fluoroindolin-1-yl)-2-(4-((4-methylpiperazin-1-yl)methyl)-3-(tri-fluoromethyl)phenyl)-ethan-1-one]	301 to 500
CC(C)(O)Cn1cc(-c2ccc3c(c2F)CCN3C(=O)Cc2cc(C(F)(F)F)ccc2F)c2c(N)ncnc21 [Compound I-23, 1-(5-(4-amino-7-(2-hydroxy-2-methylprop-yl)-7H-pyrrolo[2,3-d]-pyrimidin-5-yl)-4-fluoroindolin-1-yl)-2-(2-fluoro-5-(trifluoro-methyl)phenyl)ethan-1-one]	< 150
Nc1ncnc2c1c(-c1ccc3c(c1F)CCN3C(=O)Cc1cccc(C(F)(F)F)n1)cn2C1CC1 [Compound I-20, 1-(5-(4-amino-7-cyclo-propyl-7H-pyrrolo[2,3-d]pyrimidin-5-yl)-4-fluoroindolin-1-yl)-2-(6-(trifluoromethyl)pyr-idin-2-yl)ethan-1-one]	< 150
Nc1ncnc2c1c(-c1ccc3c(c1F)CCN3C(=O)Cc1cc(C(F)(F)F)ccc1F)cn2CCC(=O)O [Compound I-34, 3-(4-amino-5-(4-fluoro-1-(2-(2-fluoro-5-(tri-fluoromethyl)phenyl)-acetyl)indolin-5-yl)-7H-pyrrolo[2,3-d]pyrimidin-7-yl)propanoic acid]	< 150
CN1CC(n2cc(-c3ccc4c(c3F)CCN4C(=O)Cc3cc(C(F)(F)F)ccc3F)c3c(N)ncnc32)C1 [Compound I-33, 1-(5-(4-amino-7-(1-methylazetidin-3-yl)-7H-pyrrolo[2,3-d]pyr-imidin-5-yl)-4-fluoroin-dolin-1-yl)-2-(2-fluoro-5-(trifluoromethyl)phen-yl)ethan-1-one]	< 150
CN1CCC(n2cc(-c3ccc4c(c3F)CCN4C(=O)Cc3cc(C(F)(F)F)ccc3F)c3c(N)ncnc32)CC1 [Compound I-28, 1-(5-(4-amino-7-(1-methylpiperidin-4-yl)-7H-pyrrolo[2,3-d]pyr-imidin-5-yl)-4-fluoro-indolin-1-yl)-2-(2-fluoro-5-(trifluorometh-yl)phenyl)ethan-1-one]	< 150
CC(C)n1nc(-c2ccc3c(c2F)CCN3C(=O)Cc2ccc(F)cc2)c2c(N)ncnc21 [Compound I-3, 1-(5-(4-amino-1-iso-propyl-1H-pyrazolo[3,4-d]pyrimidin-3-yl)-4-fluoroindolin-1-yl)-2-(4-fluorophenyl)ethan-1-one]	> 1500
Nc1ncnc2c1c(-c1ccc3c(c1F)CCN3C(=O)Cc1cc(C(F)(F)F)ccc1F)nn2CCO [Compound I-19, 1-(5-(4-amino-1-(2-hydroxyethyl)-1H-pyr-azolo[3,4-d]pyrimidin-3-yl)-4-fluoroindolin-1-yl)-2-(2-fluoro-5-(tri-fluoromethyl)phenyl)-ethan-1-one]	< 150
CC(C)n1cc(-c2ccc3c(c2F)CCN3C(=O)Cc2ccc(F)c(C(F)(F)F)c2)c2c(N)ncnc21 [Compound I-13, 1-(5-(4-amino-7-isoprop-yl-7H-pyrrolo[2,3-d]pyr-imidin-5-yl)-4-fluoroind-olin-1-yl)-2-(4-fluoro-3-(trifluoromethyl)phenyl)-ethan-1-one]	151 to 300
Nc1ncnc2c1c(-c1ccc3c(c1F)CCN3C(=O)Cc1cc(C(F)(F)F)ccc1F)cn2CCO [Compound I-18, 1-(5-(4-amino-7-(2-hydroxyethyl)-7H-pyr-rolo[2,3-d]pyrimidin-5-yl)-4-fluoroindolin-1-yl)-2-(2-fluoro-5-(tri-fluoromethyl)phenyl)-ethan-1-one]	< 150
CN1CCCC(n2cc(-c3ccc4c(c3F)CCN4C(=O)Cc3cc(C(F)(F)F)ccc3F)c3c(N)ncnc32)C1 (centres unmarked) [Compound I-31, 1-(5-(4-amino-7-(1-methylpiperidin-3-yl)-7H-pyrrolo[2,3-d]pyr-imidin-5-yl)-4-fluoroin-dolin-1-yl)-2-(2-fluoro-5-(trifluoromethyl)phen-yl)ethan-1-one]	< 150
CN1CCN(Cc2ccc(C(F)(F)F)cc2CC(=O)N2CCc3c2ccc(-c2cn(C4CC4)c4ncnc(N)c24)c3F)CC1 [Compound I-30, 1-(5-(4-amino-7-cyclo-propyl-7H-pyrrolo[2,3-d]pyrimidin-5-yl)-4-fluoroindolin-1-yl)-2-(2-((4-methylpiperazin-1-yl)methyl)-5-(trifluoro-methyl)phenyl)ethan-1-one]	> 1500
COCCn1cc(-c2ccc3c(c2F)CCN3C(=O)Cc2cc(C(F)(F)F)ccc2F)c2c(N)ncnc21 [Compound I-26, 1-(5-(4-amino-7-(2-methoxyethyl)-7H-pyr-rolo[2,3-d]pyrimidin-5-yl)-4-fluoroindolin-1-yl)-2-(2-fluoro-5-(tri-fluoromethyl)phenyl)-ethan-1-one]	< 150
Nc1ncnc2c1c(-c1ccc3c(c1Cl)CCN3C(=O)Cc1cc(C(F)(F)F)ccc1F)nn2C1CC1 [Compound I-15, 1-(5-(4-amino-1-cyclo-propyl-1H-pyrazolo[3,4-d]pyrimidin-3-yl)-4-chloroindolin-1-yl)-2-(2-fluoro-5-(trifluoro-methyl)phenyl)ethan-1-one]	< 150
Nc1ncnc2[nH]cc(-c3ccc4c(c3F)CCN4C(=O)Cc3cc(C(F)(F)F)ccc3F)c12 [Compound I-22, 1-(5-(4-amino-7H-pyr-rolo[2,3-d]pyrimidin-5-yl)-4-fluoroindolin-1-yl)-2-(2-fluoro-5-(tri-fluoromethyl)phenyl)-ethan-1-one]	< 150
COCCn1nc(-c2ccc3c(c2F)CCN3C(=O)Cc2cc(C(F)(F)F)ccc2F)c2c(N)ncnc21 [Compound I-24, 1-(5-(4-amino-1-(2-methoxyethyl)-1H-pyrazolo[3,4-d]pyrim-idin-3-yl)-4-fluoroindo-lin-1-yl)-2-(2-fluoro-5-(trifluoromethyl)phen-yl)ethan-1-one]	< 150
Nc1nccc2c1c(-c1ccc3c(c1F)CCN3C(=O)Cc1cc(C(F)(F)F)ccc1F)nn2C1CC1 [Compound I-29, 1-(5-(4-amino-1-cyclo-propyl-1H-pyrazolo[4,3-c]pyridin-3-yl)-4-fluoro-indolin-1-yl)-2-(2-fluoro-5-(trifluoromethyl)phen-yl)ethan-1-one]	< 150
CN1CCN(Cc2cc(CC(=O)N3CCc4c3ccc(-c3cn(C5CC5)c5ncnc(N)c35)c4F)cc(C(F)(F)F)c2)CC1 [Compound I-32, 1-(5-(4-amino-7-cyclo-propyl-7H-pyrrolo[2,3-d]pyrimidin-5-yl)-4-fluoroindolin-1-yl)-2-(3-((4-methylpiperazin-1-yl)methyl)-5-(tri-fluoromethyl)phenyl)-ethan-1-one]	> 1500
Nc1ncnc2c1c(-c1ccc3c(c1F)CCN3C(=O)Cc1cc(C(F)(F)F)ccc1F)cn2C1CC(O)C1 (centres unmarked) [Compound I-27, 1-(5-(4-amino-7-(3-hydroxycyclobutyl)-7H-pyrrolo[2,3-d]pyrimidin-5-yl)-4-fluoroindolin-1-yl)-2-(2-fluoro-5-(tri-fluoromethyl)phenyl)-ethan-1-one]	< 150
Cc1cccc(CC(=O)N2CCc3c2ccc(-c2cn(C4CC4)c4ncnc(N)c24)c3F)n1 [Compound I-21, 1-(5-(4-amino-7-cyclo-propyl-7H-pyrrolo[2,3-d]pyrimidin-5-yl)-4-fluoroindolin-1-yl)-2-(6-methylpyridin-2-yl)-ethan-1-one]	< 150
